Columns and labels:
Format in all cases: cell-based, hepatitis C virus (genotype 1a-H77)
[1] = tested on: HCV replicon with a D168V mutation in a 1a-H77 background; experiment: transient replicon assay, D168V mutation in 1a-H77 background; settings: Hepatitis C virus, read-out: EC50 in a transient replicon assay with a D168V mutation in a 1a-H77 background
Experimental: (§1) Replicon cell lines can be maintained in Dulbecco's modified Eagles medium (DMEM) containing 100 IU/ml penicillin, […] streptomycin (Invitrogen), […] G418 (Invitrogen) and 10% (v/v) fetal bovine serum (FBS). Replicon-containing cells can be seeded into 96 well plates at a density of 5000 cells per well in 100 μl DMEM containing 5% FBS. The next day, the compound can be initially diluted in dimethyl sulfoxide (DMSO) to generate a 200× stock of the inhibitor in a series of 8 half-log dilutions. The dilution series can then be diluted 100-fold in the medium containing 5% FBS. One hundred microliters of medium with the inhibitor can be added to each well of the overnight cell culture plate already containing 100 μl of DMEM with 5% FBS. In assays where the protein binding effect on inhibitor potency is assessed, the medium from the overnight cell culture plates can be replaced with 200 μl DMEM containing 40% human plasma (Innovative Research) plus 5% FBS as well as compound. The cells can be grown for 4 days in tissue culture incubators. The inhibitory effects of compounds against the replicons can be determined by measuring either the level of luciferase or HCV RNA. The luciferase assay can be conducted using a Luciferase Assay System kit (Promega) following the manufacturer's instructions. Briefly, the cell culture medium is removed and wells are washed with 200 μl of phosphate-buffered saline. To each well Passive Lysis buffer (Promega, Wis.) is added and the plates are incubated for 30 min with rocking to lyse the cells. Luciferin solution (50 μl, Promega) is added, and luciferase activity is measured with a Victor II luminometer (Perkin-Elmer). To determine HCV RNA levels, RNA extractions can be performed using the CellsDirect kit (Invitrogen), and the HCV RNA copy number can be measured using the SuperScript III Platinum One-Step qRT-PCR system (Invitrogen) and primers specific to the HCV 5′ nontranslated region. Cytotoxicity can be determined by the 3-[4,5-dimethylhiazol-2-yl]-2,5-diphenyltetrazolium bromide (MTT) colorimetric assay as follows. Replicon cells is plated in 96-well plates (4000 cells per well), the next day compound dilutions are added as in the activity assay, and the cells are grown in the presence of the inhibitors for 4 days. The MTT solution is diluted in DMEM containing 5% FBS and 60 μl of the solution is added to the cells. After 4 hrs, the cells are solubilized by the addition of 30 […]μl SDS (20% in 0.02 N HCl). The plates are incubated overnight and the optical density can be measured at 570 nm. To determine compounds' EC50 and TD50, luciferase, RNA inhibition and MTT data can be analyzed using the GraphPad Prism 4 software (equation: sigmoidal dose-response—variable slope).
(§2) The 1a-H77 replicon for transient assays further differs from the replicon in the stable cell line in that it contains NS2 through NS5B in the second cistron. The 1b-N strain replicon contains NS3 through NS5B in the second cistron, with adaptive mutations E1202G in NS3 and S2204I in NS5A. Mutagenesis can be performed using the Stratagene QuikChange XL II site-directed mutagenesis kit. Mutants' sequences can be confirmed, plasmids can be linearized with Xba I restriction enzyme and used as template for in vitro transcription reactions to make mutant replicon RNA for transient transfections. In vitro transcription can be performed with the T7 Megascript kit (Ambion).
(§3) Transient replicon transfections can be performed essentially as described by Mo et al. (Antimicrob Agents Chemother (2005) 49(10):4305-4314) with slight modifications. Fifteen micrograms of template RNA can be used to electroporate 3×10^6 cells in a 200 μl volume in a 0.2 cm cuvette. The cells used for transient transfections can be Huh7 cells obtained by curing replicon-containing cells with IFN (Mo et al., supra). Electroporation can be done with a Gene Pulser II (Bio-Rad, CA) at 480V and 25 μF, using two manual pulses. […]

[2] = tested on: HCV replicon with a D168E mutation in a 1a-H77 background; experiment: transient replicon assay, D168E mutation in 1a-H77 background; settings: Hepatitis C virus, read-out: EC50 in a transient replicon assay with a D168E mutation in a 1a-H77 background
Experimental: as §1, §2, §3

[3] = tested on: HCV replicon with a R155K mutation in a 1a-H77 background; experiment: transient replicon assay, R155K mutation in 1a-H77 background; settings: Hepatitis C virus, read-out: EC50 in a transient replicon assay with a R155K mutation in a 1a-H77 background
Experimental: as §1, §2, §3

Compound | EC50 [1] [nM] | EC50 [2] [nM] | EC50 [3] [nM]
CCc1nc2ccc(F)cc2nc1O[C@@H]1C[C@H]2C(=O)N[C@]3(C(=O)NS(=O)(=O)C4CC4)C[C@H]3/C=C\CCCCC[C@H](NC(=O)OC(C)(C)C)C(=O)N2C1 [Example 121, tert-butyl (2R,6S,13aS,14aR,16aS,Z)-14a-(cyclopropylsulfonylcarbamoyl)-2-(3-ethyl-7-fluoroquinoxalin-2-yloxy)-5,16-dioxo-1,2,3,5,6,7,8,9,10,11,13a,14,14a,15,16,16a-hexadecahydrocyclopropa[e]pyrrolo[1,2-a][1,4]diazacyclopentadecin-6-ylcarbamate] | 50 to 250 | 3 to 20 | 1 to 10
Cc1cc(C(=O)N[C@H]2CCCCC/C=C\[C@@H]3C[C@@]3(C(=O)NS(=O)(=O)C3CC3)NC(=O)[C@@H]3C[C@@H](Oc4nc5c(F)cccc5nc4C(F)(F)F)CN3C2=O)no1 [Example 113, N-((2R,6S,13aS,14aR,16aS,Z)-14a-(cyclopropylsulfonylcarbamoyl)-2-(8-fluoro-3-(trifluoromethyl)quinoxalin-2-yloxy)-5,16-dioxo-1,2,3,5,6,7,8,9,10,11,13a,14,14a,15,16,16a-hexadecahydrocyclopropa[e]pyrrolo[1,2-a][1,4]diazacyclopentadecin-6-yl)-5-methylisoxazole-3-carboxamide] | < 25 | < 3 | < 1
CCc1nc2cccc(F)c2nc1O[C@@H]1C[C@H]2C(=O)N[C@]3(C(=O)NS(=O)(=O)C4CC4)C[C@H]3/C=C\CCCCC[C@H](NC(=O)c3ccon3)C(=O)N2C1 [Example 161, N-((2R,6S,13aS,14aR,16aS,Z)-14a-(cyclopropylsulfonylcarbamoyl)-2-(3-ethyl-8-fluoroquinoxalin-2-yloxy)-5,16-dioxo-1,2,3,5,6,7,8,9,10,11,13a,14,14a,15,16,16a-hexadecahydrocyclopropa[e]pyrrolo[1,2-a][1,4]diazacyclopentadecin-6-yl)isoxazole-3-carboxamide] | 50 to 250 | 3 to 20 | 1 to 10
CC(C)(C)OC(=O)N[C@H]1CCCCC/C=C\[C@@H]2C[C@@]2(C(=O)NS(=O)(=O)C2(C)CC2)NC(=O)[C@@H]2C[C@@H](Oc3nc4cc(F)ccc4nc3C(C)(F)F)CN2C1=O [Example 118, tert-butyl (2R,6S,13aS,14aR,16aS,Z)-2-(3-(1,1-difluoroethyl)-7-fluoroquinoxalin-2-yloxy)-14a-(1-methylcyclopropylsulfonylcarbamoyl)-5,16-dioxo-1,2,3,5,6,7,8,9,10,11,13a,14,14a,15,16,16a-hexadecahydrocyclopropa[e]pyrrolo[1,2-a][1,4]diazacyclopentadecin-6-ylcarbamate] | 250 to 1000 | > 100 | 1 to 10
Cc1nc2cccc(F)c2nc1O[C@@H]1C[C@H]2C(=O)N[C@]3(C(=O)NS(=O)(=O)C4CC4)C[C@H]3/C=C\CCCCC[C@H](NC(=O)c3ccon3)C(=O)N2C1 [Example 55, N-((2R,6S,13aS,14aR,16aS,Z)-14a-(cyclopropylsulfonylcarbamoyl)-2-(8-fluoro-3-methylquinoxalin-2-yloxy)-5,16-dioxo-1,2,3,5,6,7,8,9,10,11,13a,14,14a,15,16,16a-hexadecahydrocyclopropa[e]pyrrolo[1,2-a][1,4]diazacyclopentadecin-6-yl)isoxazole-3-carboxamide] | 50 to 250 | 20 to 50 | 1 to 10
CCc1nc2ccc(F)cc2nc1O[C@@H]1C[C@H]2C(=O)N[C@]3(C(=O)NS(=O)(=O)C4CC4)C[C@H]3/C=C\CCCCC[C@H](NC(=O)c3ccon3)C(=O)N2C1 [Example 122, N-((2R,6S,13aS,14aR,16aS,Z)-14a-(cyclopropylsulfonylcarbamoyl)-2-(3-ethyl-7-fluoroquinoxalin-2-yloxy)-5,16-dioxo-1,2,3,5,6,7,8,9,10,11,13a,14,14a,15,16,16a-hexadecahydrocyclopropa[e]pyrrolo[1,2-a][1,4]diazacyclopentadecin-6-yl)isoxazole-3-carboxamide] | 250 to 1000 | 20 to 50 | 1 to 10
Cc1onc(C(=O)N[C@H]2CCCCC/C=C\[C@@H]3C[C@@]3(C(=O)NS(=O)(=O)C3(C)CC3)NC(=O)[C@@H]3C[C@@H](Oc4nc5cc(F)ccc5nc4C(F)(F)F)CN3C2=O)c1C [Example 108, N-((2R,6S,13aS,14aR,16aS,Z)-2-(7-fluoro-3-(trifluoromethyl)quinoxalin-2-yloxy)-14a-(1-methylcyclopropylsulfonylcarbamoyl)-5,16-dioxo-1,2,3,5,6,7,8,9,10,11,13a,14,14a,15,16,16a-hexadecahydrocyclopropa[e]pyrrolo[1,2-a][1,4]diazacyclopentadecin-6-yl)-4,5-dimethylisoxazole-3-carboxamide] | < 25 | < 3 | < 1
CC(C)(C)OC(=O)N[C@H]1CCCCC/C=C\[C@@H]2C[C@@]2(C(=O)NS(=O)(=O)C2CC2)NC(=O)[C@@H]2C[C@@H](Oc3nc4c(F)cccc4nc3C(F)(F)F)CN2C1=O [Example 112, tert-butyl (2R,6S,13aS,14aR,16aS,Z)-14a-(cyclopropylsulfonylcarbamoyl)-2-(8-fluoro-3-(trifluoromethyl)quinoxalin-2-yloxy)-5,16-dioxo-1,2,3,5,6,7,8,9,10,11,13a,14,14a,15,16,16a-hexadecahydrocyclopropa[e]pyrrolo[1,2-a][1,4]diazacyclopentadecin-6-ylcarbamate] | 25 to 50 | 3 to 20 | < 1
CCc1nc2cccc(F)c2nc1O[C@@H]1C[C@H]2C(=O)N[C@]3(C(=O)NS(=O)(=O)C4CC4)C[C@H]3/C=C\CCCCC[C@H](NC(=O)c3cc(C)on3)C(=O)N2C1 [Example 162, N-((2R,6S,13aS,14aR,16aS,Z)-14a-(cyclopropylsulfonylcarbamoyl)-2-(3-ethyl-8-fluoroquinoxalin-2-yloxy)-5,16-dioxo-1,2,3,5,6,7,8,9,10,11,13a,14,14a,15,16,16a-hexadecahydrocyclopropa[e]pyrrolo[1,2-a][1,4]diazacyclopentadecin-6-yl)-5-methylisoxazole-3-carboxamide] | 50 to 250 | 3 to 20 | 1 to 10
Cc1onc(C(=O)N[C@H]2CCCCC/C=C\[C@@H]3C[C@@]3(C(=O)NS(=O)(=O)C3(C)CC3)NC(=O)[C@@H]3C[C@@H](Oc4nc5ccccc5nc4C(C)(F)F)CN3C2=O)c1C [Example 7, N-((2R,6S,13aS,14aR,16aS,Z)-2-(3-(1,1-difluoroethyl)quinoxalin-2-yloxy)-14a-(1-methylcyclopropylsulfonylcarbamoyl)-5,16-dioxo-1,2,3,5,6,7,8,9,10,11,13a,14,14a,15,16,16a-hexadecahydrocyclopropa[e]pyrrolo[1,2-a][1,4]diazacyclopentadecin-6-yl)-4,5-dimethylisoxazole-3-carboxamide] | 25 to 50 | < 3 | 1 to 10

From patent US9493506B2 (Enanta Pharmaceuticals, Inc., priority 2010, dated 2016)
